# Source: ChEMBL document CHEMBL1149417 (Bioorg Med Chem Lett, 2006)
# Molecular target: T1, Estrogen receptor (Homo sapiens, UniProt P03372)
# T1 sequence (P03372 whole entry): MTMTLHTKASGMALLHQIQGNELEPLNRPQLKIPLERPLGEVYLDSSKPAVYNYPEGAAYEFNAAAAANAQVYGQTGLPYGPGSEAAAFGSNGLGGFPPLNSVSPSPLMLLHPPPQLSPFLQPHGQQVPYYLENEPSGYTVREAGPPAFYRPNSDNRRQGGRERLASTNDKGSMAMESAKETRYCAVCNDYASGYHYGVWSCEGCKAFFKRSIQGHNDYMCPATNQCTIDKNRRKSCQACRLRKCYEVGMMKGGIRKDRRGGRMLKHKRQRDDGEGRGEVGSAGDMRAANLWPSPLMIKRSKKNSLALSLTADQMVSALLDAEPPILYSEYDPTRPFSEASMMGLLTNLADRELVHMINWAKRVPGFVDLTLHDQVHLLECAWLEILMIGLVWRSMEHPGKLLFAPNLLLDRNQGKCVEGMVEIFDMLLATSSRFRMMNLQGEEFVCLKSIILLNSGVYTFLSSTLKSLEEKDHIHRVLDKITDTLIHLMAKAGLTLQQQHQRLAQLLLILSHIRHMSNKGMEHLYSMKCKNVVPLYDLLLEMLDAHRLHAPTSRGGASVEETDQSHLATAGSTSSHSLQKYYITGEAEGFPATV
# Description: Binding affinity to human ERalpha
row,Structure (SMILES),IC50 [nM]
1,C[C@]12CCC3C(CC=C4C[C@@H](O)CC[C@@]43/C=C\Cl)C1CC[C@@H]2O (some centres undefined),6690
2,C/C=C/[C@]12CC[C@H](O)CC1=CCC1C2CC[C@@]2(C)C1CC[C@@H]2O (some centres undefined),1160
3,C#CC[C@]12CC[C@H](O)CC1=CCC1C2CC[C@@]2(C)C1CC[C@@H]2O (some centres undefined),4640
4,C[C@]12CCC3C(CC=C4C[C@@H](O)CC[C@@]43CC=O)C1CC[C@@H]2O (some centres undefined),> 1000
5,CC[C@]12CC[C@H](O)CC1=CCC1C2CC[C@@]2(C)C1CC[C@@H]2O (some centres undefined),2330
6,C=C[C@]12CC[C@H](O)CC1=CCC1C2CC[C@@]2(C)C1CC[C@]2(C)O (some centres undefined),1050
7,C=CC[C@]12CC[C@H](O)CC1=CCC1C2CC[C@@]2(C)C1CC[C@@H]2O (some centres undefined),1740
8,C[C@]12CCC3C(CC=C4C[C@@H](O)CC[C@@]43/C=C\Br)C1CC[C@@H]2O (some centres undefined),> 10000
9,C=C[C@]12CC[C@H](O)CC1=CCC1C2CC[C@@]2(C)C1CC[C@@H]2O (some centres undefined),2240
10,CC/C=C\[C@]12CC[C@H](O)CC1=CCC1C2CC[C@@]2(C)C1CC[C@@H]2O (some centres undefined),3040
11,CO/C=C/[C@]12CC[C@H](O)CC1=CCC1C2CC[C@@]2(C)C1CC[C@@H]2O (some centres undefined),> 10000
12,CC#C[C@]12CC[C@H](O)CC1=CCC1C2CC[C@@]2(C)C1CC[C@@H]2O (some centres undefined),> 8420

# Molecular target: T2, Androgen receptor (Homo sapiens, UniProt P10275)
# T2 sequence (P10275 whole entry): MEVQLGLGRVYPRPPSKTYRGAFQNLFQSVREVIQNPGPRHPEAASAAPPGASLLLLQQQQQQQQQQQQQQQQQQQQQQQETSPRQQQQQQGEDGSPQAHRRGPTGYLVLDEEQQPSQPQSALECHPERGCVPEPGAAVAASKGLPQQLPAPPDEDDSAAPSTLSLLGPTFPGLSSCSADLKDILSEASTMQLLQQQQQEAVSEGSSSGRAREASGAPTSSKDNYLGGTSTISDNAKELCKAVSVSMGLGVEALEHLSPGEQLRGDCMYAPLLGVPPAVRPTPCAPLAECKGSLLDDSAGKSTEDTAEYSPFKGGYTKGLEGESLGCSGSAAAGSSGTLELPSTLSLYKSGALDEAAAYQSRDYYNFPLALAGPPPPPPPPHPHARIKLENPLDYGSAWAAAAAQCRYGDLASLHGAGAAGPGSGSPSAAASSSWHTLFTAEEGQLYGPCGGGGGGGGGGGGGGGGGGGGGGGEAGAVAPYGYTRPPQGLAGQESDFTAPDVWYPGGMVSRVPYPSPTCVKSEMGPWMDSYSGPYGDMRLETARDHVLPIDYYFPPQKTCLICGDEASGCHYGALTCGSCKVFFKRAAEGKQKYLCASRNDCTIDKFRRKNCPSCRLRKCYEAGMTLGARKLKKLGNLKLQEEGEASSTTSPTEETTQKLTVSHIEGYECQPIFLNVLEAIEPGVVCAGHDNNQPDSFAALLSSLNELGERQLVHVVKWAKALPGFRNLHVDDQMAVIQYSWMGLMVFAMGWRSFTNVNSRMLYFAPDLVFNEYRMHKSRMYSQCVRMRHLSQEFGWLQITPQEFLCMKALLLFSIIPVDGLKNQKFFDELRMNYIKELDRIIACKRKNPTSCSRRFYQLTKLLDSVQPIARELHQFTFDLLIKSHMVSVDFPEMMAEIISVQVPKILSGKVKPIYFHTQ
# Description: Inhibitory activity against AR
row,Structure (SMILES),IC50 [nM]
1,C[C@]12CCC3C(CC=C4C[C@@H](O)CC[C@@]43/C=C\Cl)C1CC[C@@H]2O (some centres undefined),172
2,C/C=C/[C@]12CC[C@H](O)CC1=CCC1C2CC[C@@]2(C)C1CC[C@@H]2O (some centres undefined),843
3,C#CC[C@]12CC[C@H](O)CC1=CCC1C2CC[C@@]2(C)C1CC[C@@H]2O (some centres undefined),1720
4,C[C@]12CCC3C(CC=C4C[C@@H](O)CC[C@@]43CC=O)C1CC[C@@H]2O (some centres undefined),> 5000
5,CC[C@]12CC[C@H](O)CC1=CCC1C2CC[C@@]2(C)C1CC[C@@H]2O (some centres undefined),33
6,C=C[C@]12CC[C@H](O)CC1=CCC1C2CC[C@@]2(C)C1CC[C@]2(C)O (some centres undefined),169
7,C=CC[C@]12CC[C@H](O)CC1=CCC1C2CC[C@@]2(C)C1CC[C@@H]2O (some centres undefined),1770
8,C[C@]12CCC3C(CC=C4C[C@@H](O)CC[C@@]43/C=C\Br)C1CC[C@@H]2O (some centres undefined),20
9,C=C[C@]12CC[C@H](O)CC1=CCC1C2CC[C@@]2(C)C1CC[C@@H]2O (some centres undefined),33
10,CC/C=C\[C@]12CC[C@H](O)CC1=CCC1C2CC[C@@]2(C)C1CC[C@@H]2O (some centres undefined),3770
11,CO/C=C/[C@]12CC[C@H](O)CC1=CCC1C2CC[C@@]2(C)C1CC[C@@H]2O (some centres undefined),4620
12,CC#C[C@]12CC[C@H](O)CC1=CCC1C2CC[C@@]2(C)C1CC[C@@H]2O (some centres undefined),3730

# Molecular target: T3, Estrogen receptor beta (Homo sapiens, UniProt Q92731)
# Assay type: functional, cell-based, HEK293
# Description: Effect on transactivation of ALP gene expression in HEK293 cells transfected with hERbeta
# T3 sequence (Q92731 whole entry): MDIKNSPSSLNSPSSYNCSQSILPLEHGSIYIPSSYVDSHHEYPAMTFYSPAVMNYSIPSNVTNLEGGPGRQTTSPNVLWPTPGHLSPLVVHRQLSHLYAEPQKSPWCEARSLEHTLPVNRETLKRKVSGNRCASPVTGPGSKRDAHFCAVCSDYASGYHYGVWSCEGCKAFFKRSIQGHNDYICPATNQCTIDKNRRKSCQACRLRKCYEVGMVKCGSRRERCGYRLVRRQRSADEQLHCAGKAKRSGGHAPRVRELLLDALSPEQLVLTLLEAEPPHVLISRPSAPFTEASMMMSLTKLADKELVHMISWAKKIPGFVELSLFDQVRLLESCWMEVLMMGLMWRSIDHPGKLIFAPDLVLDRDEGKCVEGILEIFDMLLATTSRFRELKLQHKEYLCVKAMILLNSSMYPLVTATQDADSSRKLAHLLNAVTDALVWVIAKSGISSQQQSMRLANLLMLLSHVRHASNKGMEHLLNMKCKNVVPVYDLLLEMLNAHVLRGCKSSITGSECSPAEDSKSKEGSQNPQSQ
row,Structure (SMILES),EC50 [nM]
1,C[C@]12CCC3C(CC=C4C[C@@H](O)CC[C@@]43/C=C\Cl)C1CC[C@@H]2O (some centres undefined),91
2,C/C=C/[C@]12CC[C@H](O)CC1=CCC1C2CC[C@@]2(C)C1CC[C@@H]2O (some centres undefined),39
3,C#CC[C@]12CC[C@H](O)CC1=CCC1C2CC[C@@]2(C)C1CC[C@@H]2O (some centres undefined),153
4,C[C@]12CCC3C(CC=C4C[C@@H](O)CC[C@@]43CC=O)C1CC[C@@H]2O (some centres undefined),> 1000
5,C=C[C@]12CC[C@H](O)CC1=CCC1C2CC[C@@]2(C)C1CC[C@]2(C)O (some centres undefined),31
6,C=CC[C@]12CC[C@H](O)CC1=CCC1C2CC[C@@]2(C)C1CC[C@@H]2O (some centres undefined),148
7,C[C@]12CCC3C(CC=C4C[C@@H](O)CC[C@@]43/C=C\Br)C1CC[C@@H]2O (some centres undefined),96
8,C=C[C@]12CC[C@H](O)CC1=CCC1C2CC[C@@]2(C)C1CC[C@@H]2O (some centres undefined),4.1
9,CC/C=C\[C@]12CC[C@H](O)CC1=CCC1C2CC[C@@]2(C)C1CC[C@@H]2O (some centres undefined),252
10,CO/C=C/[C@]12CC[C@H](O)CC1=CCC1C2CC[C@@]2(C)C1CC[C@@H]2O (some centres undefined),827
11,CC#C[C@]12CC[C@H](O)CC1=CCC1C2CC[C@@]2(C)C1CC[C@@H]2O (some centres undefined),171

# Molecular target: T3, Estrogen receptor beta
# Remark: another data set of the same source
# Description: Binding affinity to human ERbeta
row,Structure (SMILES),IC50 [nM]
1,C[C@]12CCC3C(CC=C4C[C@@H](O)CC[C@@]43/C=C\Cl)C1CC[C@@H]2O (some centres undefined),83
2,C/C=C/[C@]12CC[C@H](O)CC1=CCC1C2CC[C@@]2(C)C1CC[C@@H]2O (some centres undefined),96
3,C#CC[C@]12CC[C@H](O)CC1=CCC1C2CC[C@@]2(C)C1CC[C@@H]2O (some centres undefined),286
4,C[C@]12CCC3C(CC=C4C[C@@H](O)CC[C@@]43CC=O)C1CC[C@@H]2O (some centres undefined),1620
5,C[C@]12CC[C@H]3[C@@H](CCC4=CC(=O)CC[C@@]43C)[C@@H]1CC[C@@H]2O [TESTOSTERONE],> 10000
6,CC[C@]12CC[C@H](O)CC1=CCC1C2CC[C@@]2(C)C1CC[C@@H]2O (some centres undefined),16
7,C=C[C@]12CC[C@H](O)CC1=CCC1C2CC[C@@]2(C)C1CC[C@]2(C)O (some centres undefined),25
8,C=CC[C@]12CC[C@H](O)CC1=CCC1C2CC[C@@]2(C)C1CC[C@@H]2O (some centres undefined),128
9,C[C@]12CCC3C(CC=C4C[C@@H](O)CC[C@@]43/C=C\Br)C1CC[C@@H]2O (some centres undefined),212
10,C=C[C@]12CC[C@H](O)CC1=CCC1C2CC[C@@]2(C)C1CC[C@@H]2O (some centres undefined),11
11,CC/C=C\[C@]12CC[C@H](O)CC1=CCC1C2CC[C@@]2(C)C1CC[C@@H]2O (some centres undefined),361
12,CO/C=C/[C@]12CC[C@H](O)CC1=CCC1C2CC[C@@]2(C)C1CC[C@@H]2O (some centres undefined),1300
13,CC#C[C@]12CC[C@H](O)CC1=CCC1C2CC[C@@]2(C)C1CC[C@@H]2O (some centres undefined),381

# Molecular target: T1, Estrogen receptor
# Assay type: functional, cell-based, HEK293
# Remark: another data set of the same source
# Description: Effect on transactivation of ALP gene expression in HEK293 cells transfected with hERalpha
row,Structure (SMILES),EC50 [nM]
1,C[C@]12CCC3C(CC=C4C[C@@H](O)CC[C@@]43/C=C\Cl)C1CC[C@@H]2O (some centres undefined),> 1000
2,C/C=C/[C@]12CC[C@H](O)CC1=CCC1C2CC[C@@]2(C)C1CC[C@@H]2O (some centres undefined),47
3,C#CC[C@]12CC[C@H](O)CC1=CCC1C2CC[C@@]2(C)C1CC[C@@H]2O (some centres undefined),984
4,C[C@]12CCC3C(CC=C4C[C@@H](O)CC[C@@]43CC=O)C1CC[C@@H]2O (some centres undefined),> 1000
5,C=C[C@]12CC[C@H](O)CC1=CCC1C2CC[C@@]2(C)C1CC[C@]2(C)O (some centres undefined),494
6,C=CC[C@]12CC[C@H](O)CC1=CCC1C2CC[C@@]2(C)C1CC[C@@H]2O (some centres undefined),1000
7,C[C@]12CCC3C(CC=C4C[C@@H](O)CC[C@@]43/C=C\Br)C1CC[C@@H]2O (some centres undefined),> 1000
8,C=C[C@]12CC[C@H](O)CC1=CCC1C2CC[C@@]2(C)C1CC[C@@H]2O (some centres undefined),982
9,CC/C=C\[C@]12CC[C@H](O)CC1=CCC1C2CC[C@@]2(C)C1CC[C@@H]2O (some centres undefined),719
10,CO/C=C/[C@]12CC[C@H](O)CC1=CCC1C2CC[C@@]2(C)C1CC[C@@H]2O (some centres undefined),583
11,CC#C[C@]12CC[C@H](O)CC1=CCC1C2CC[C@@]2(C)C1CC[C@@H]2O (some centres undefined),1000
